From patent US9024019B2, “Insecticidal triazinone derivatives” (Syngenta Participations AG, priority 2011, dated 2015) come the findings set out here.

The term melting point denotes the temperature, or range, at which the solid turns liquid.

The structures appear in SMILES notation.

`CO/N=C/C1=NNC(=O)N(/N=C/c2cccnc2)C1`: the melting point lay in the range of 237 to 238 °C.

`CO/N=C/C1=NNC(=O)N(/N=C/c2cncc(F)c2)C1`: the melting point was 226 to 227 °C.

Turning to `CO/N=C/C1=NNC(=O)N(/N=C/c2ccc[n+]([O-])c2)C1`, the melting point is 229 °C (dec.).

`CO/N=C/C1=NNC(=O)N(/N=C/c2cncnc2)C1` showed a melting point of 244 to 245 °C.

Turning to `CO/N=C/C1=NNC(=O)N(/N=C/c2cnccn2)C1`, the melting point is 233 to 234 °C.

`CO/N=C(\C)C1=NNC(=O)N(/N=C/c2cccnc2)C1`: the melting point is 230 to 231 °C.

`CCO/N=C/C1=NNC(=O)N(/N=C/c2cccnc2)C1` yielded a melting point of 233 to 234 °C.

In the case of `CN(C)/N=C/C1=NNC(=O)N(/N=C/c2cccnc2)C1`, the melting point was 229 °C (dec.).

With `CC1(C)CC(C2=NNC(=O)N(/N=C/c3cccnc3)C2)=NO1`, the melting point is 212 °C (dec.).

For the compound `CC1(C)CC(C2=NNC(=O)N(/N=C/c3cncc(F)c3)C2)=NO1`, the melting point was 260 °C (dec.).

Regarding `O=C1NN=C(C2=NOC(C(F)(F)F)(C(F)(F)F)C2)CN1/N=C/c1cccnc1`, the melting point is 270 °C (dec.).

Take `O=C1NN=C(C2=NOC(C(F)(F)F)(C(F)(F)F)C2)CN1/N=C/c1cncc(F)c1`: the melting point is 290 °C (dec.).
